Source: patent US20220041641A1, “QUATERNARY AMMONIUM SALTS AS INHIBITORS OF TRIMETHYLAMINE PRODUCTION” (Senda Biosciences, Inc., priority 2018, published 2022)
Several values for one entry are separate records, joined by “and”; a condition that tells them apart may be missing. Equal values may be shown once. Read-outs that look alike come from different tables or passages of the source.

Assays:
[1] = target: CutC from Proteus mirabilis (Proteus mirabilis, UniProt B4EYG1); test: Cell-based assay for TMA production from a native producer (P. mirabilis); conditions: d9-TMA from 1 mM d9-choline, 5 h, 37° C.; value 10 given when no fit or % TMA remaining at 10 μM higher than 15%; read-out: Average IC50 Whole cell P. mirabilis
Sequence of CutC from Proteus mirabilis (B4EYG1 entry or part of it): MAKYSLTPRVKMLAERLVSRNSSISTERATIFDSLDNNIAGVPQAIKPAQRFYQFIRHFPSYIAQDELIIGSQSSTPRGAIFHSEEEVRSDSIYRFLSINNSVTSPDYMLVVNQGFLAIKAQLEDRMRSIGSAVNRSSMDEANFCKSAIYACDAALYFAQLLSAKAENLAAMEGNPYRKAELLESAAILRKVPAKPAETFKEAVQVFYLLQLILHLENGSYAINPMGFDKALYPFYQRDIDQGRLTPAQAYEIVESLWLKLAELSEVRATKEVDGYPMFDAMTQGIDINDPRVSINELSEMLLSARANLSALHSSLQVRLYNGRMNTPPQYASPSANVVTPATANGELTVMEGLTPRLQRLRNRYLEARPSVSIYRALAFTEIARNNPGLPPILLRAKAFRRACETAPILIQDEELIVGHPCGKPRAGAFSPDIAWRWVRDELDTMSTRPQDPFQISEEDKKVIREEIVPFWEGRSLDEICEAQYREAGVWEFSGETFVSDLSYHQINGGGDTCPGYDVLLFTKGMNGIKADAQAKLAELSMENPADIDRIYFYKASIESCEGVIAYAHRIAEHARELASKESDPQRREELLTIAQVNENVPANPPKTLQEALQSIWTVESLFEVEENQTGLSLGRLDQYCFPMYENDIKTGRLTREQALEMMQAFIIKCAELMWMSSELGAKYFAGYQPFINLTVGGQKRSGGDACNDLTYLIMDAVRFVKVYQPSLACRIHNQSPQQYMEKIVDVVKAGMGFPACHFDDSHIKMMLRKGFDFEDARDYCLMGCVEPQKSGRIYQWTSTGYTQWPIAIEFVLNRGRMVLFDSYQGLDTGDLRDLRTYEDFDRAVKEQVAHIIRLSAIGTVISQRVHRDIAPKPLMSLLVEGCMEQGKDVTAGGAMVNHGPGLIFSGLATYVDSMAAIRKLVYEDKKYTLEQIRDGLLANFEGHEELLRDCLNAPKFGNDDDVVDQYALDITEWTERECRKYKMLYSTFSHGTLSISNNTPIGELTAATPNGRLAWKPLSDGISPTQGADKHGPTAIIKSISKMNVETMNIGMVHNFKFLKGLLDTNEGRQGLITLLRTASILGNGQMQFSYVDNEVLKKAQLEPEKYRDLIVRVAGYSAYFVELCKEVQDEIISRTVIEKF
Sequence of CutC from Proteus mirabilis (B4EYG0 entry or part of it, further chain): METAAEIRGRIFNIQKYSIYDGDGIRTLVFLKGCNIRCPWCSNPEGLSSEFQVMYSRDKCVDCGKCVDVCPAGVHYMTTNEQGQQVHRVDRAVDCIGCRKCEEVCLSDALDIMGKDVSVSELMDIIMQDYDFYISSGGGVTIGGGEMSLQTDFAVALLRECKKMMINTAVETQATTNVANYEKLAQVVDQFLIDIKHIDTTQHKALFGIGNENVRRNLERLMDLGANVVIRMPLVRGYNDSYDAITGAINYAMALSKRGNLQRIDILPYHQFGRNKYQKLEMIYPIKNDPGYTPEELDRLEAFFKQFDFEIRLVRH
Summary of the method: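 Overnight anaerobic cultures of P. mirabilis or C. sporogenes, grown in BHI with 1 mM choline, were diluted and given 1 mM (trimethyl-d9)-choline plus compound at 10 μM final. After 5 h at 37° C., d9-TMA was quantified by LCMS.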

[2] = Caco-2 permeability assay; type: in vitro ADME; conditions: human
Method: Preparation of Caco-2 Cells: 50 μL and 25 mL of cell culture medium were added to each well of the Transwell insert and reservoir, respectively. The HTS transwell plates were incubated at 37° C., 5% CO2 for 1 hour before cell seeding. […] Cell culture medium was replaced every other day, beginning no later than 24 hours after initial plating.
Assessment of Cell Monolayer Integrity: Medium was removed from the reservoir and each Transwell insert and replaced with prewarmed fresh culture medium. Transepithelial electrical resistance (TEER) across the monolayer was measured using Millicell Epithelial Volt-Ohm measuring system (Millipore, USA). The Plate was returned to the incubator once the measurement was done. The TEER value was calculated according to the following equation: […]
Preparation of Solutions: 2 mM stock solutions in DMSO of control compounds were prepared and diluted with HBSS (10 mM HEPES, pH 7.4) to get 10 μM working solution. 0.2 mM stock solutions of test compounds in DMSO were prepared and diluted with HBSS (10 mM HEPES, pH 7.4 with 0.5% BSA) to get 1 μM working solution. Metoprolol, erythromycin and cimetidine were used as control compounds.
The Caco-2 plate was removed from the incubator. The monolayer was washed twice with pre-warmed HBSS (10 mM HEPES, pH 7.4). The plate was incubated at 37° C. for 30 minutes. To determine the rate of drug transport in the apical to basolateral direction, 125 μL of the working solution was added to the Transwell insert (apical compartment). A 50 μL sample was transferred immediately from the apical compartment to 200 μL of acetonitrile containing IS (100 nM alprazolam, 200 nM Caffeine and 100 nM tolbutamide) in a new 96-well plate as the initial donor sample (A-B) and it was vortexed at 1000 rpm for 10 minutes. The wells in the receiver plate (basolateral compartment) were filled with 235 μL of transport buffer. To determine the rate of drug transport in the basolateral to apical direction, 285 μL of the working solution were added to the receiver plate wells (basolateral compartment). A 50 μL sample was transferred immediately from the basolateral compartment to 200 μL of acetonitrile containing IS (100 nM alprazolam, 200 nM Caffeine and 100 nM tolbutamide) in a new 96-well plate as the initial donor sample (B-A) and it was vortexed at 1000 rpm for 10 minutes. The Transwell insert (apical compartment) was filled with 75 μL of transport buffer. The apical to basolateral direction and the basolateral to apical direction need to be done at the same time. The plates were incubated at 37° C. for 2 hours. At the end of the incubation, 50 μL samples from donor sides (apical compartment for Ap→Bl flux, and basolateral compartment for B1→Ap) and receiver sides (basolateral compartment for Ap→Bl flux, and apical compartment for B1→Ap) were transferred to wells of a new 96-well plate, followed by the addition of 4 volume of acetonitrile containing IS (100 nM alprazolam, 200 nM Caffeine and 100 nM tolbutamide). Samples were vortexed for 10 minutes, 50 μL samples were transferred to wells of a new 96-well plate, followed by the addition of 50 μL Hepes and 200 μL IS. All samples were vortexed for 10 minutes, and then centrifuged at 3,220 g for 40 minutes. An aliquot of 150 μL of the supernatant was mixed with an appropriate volume of ultra-pure water before LC-MS/MS analysis.
Apparent permeability (Papp) can be calculated for drug transport assays using the following equation: […]
Papp is apparent permeability (cm/s×10^−6);
Papp (B-A) indicates the apparent permeability coefficient in basolateral to apical direction, and
Papp (A-B) indicates the apparent permeability coefficient in apical to basolateral direction.

[3] = system: CutC/D enzyme; test: Acute mouse model (plasma TMAO on choline diet); type: in vivo, male C57BL/6 mice
Method: The following acute mouse model may be used to determine inhibition of the CutC/D enzyme and thus the inhibition of the formation of trimethylamine (TMA) from choline.
On day 1, male C57BL/6 mice were given a chemically defined diet (Tekland Global Rodent Diet 2018) containing 1.0% choline (g/g) for the duration of the experiment. Concurrently on day 1, mice were orally gavaged with 200 μL of compounds of interest (formulated in water). Mice were orally gavaged with the compounds and vehicle control again on day 2 and day 3 at a fixed time. Twenty hours after the last gavage, mice were sacrificed, and plasma was collected and prepared for detection of trimethylamine-N-oxide (TMAO) via liquid chromatography with on-line tandem mass spectrometry (LC-MS/MS). Food consumption and mouse weight were measured each day.
Plasma samples were prepared for LCMS as follows: An aliquot of 20 μL plasma sample was protein precipitated with 200 μL internal standard solution (100 ng/mL Labetalol & 100 ng/mL Tolbutamide & 100 ng/mL Diclofenac in acetonitrile, the mixture was vortex-mixed and centrifuged at 4000 rpm for 15 min, 4° C. An aliquot of 100 μL supernatant was transferred to the sample plate for LCMS injection. 1 μL of sample was injected onto an LC column for TMAO LCMS analysis.
Concentrations of TMAO were determined with a calibration curve ranging 0.05-100 μM for d9-TMAO in control plasma.

[4] = target: CutC from Clostridium sporogenes (Clostridium sporogenes, UniProt A0AAE4Z0A8); test: Cell-based assay for TMA production from a native producer (C. sporogenes); conditions: read-out: IC50 Whole cell C. sporogenes; d9-TMA from 1 mM d9-choline, 5 h, 37° C.; run once; value 10 given when no fit or % TMA remaining at 10 μM higher than 15%
Sequence of CutC from Clostridium sporogenes (A0ABD6RTF0 entry or part of it): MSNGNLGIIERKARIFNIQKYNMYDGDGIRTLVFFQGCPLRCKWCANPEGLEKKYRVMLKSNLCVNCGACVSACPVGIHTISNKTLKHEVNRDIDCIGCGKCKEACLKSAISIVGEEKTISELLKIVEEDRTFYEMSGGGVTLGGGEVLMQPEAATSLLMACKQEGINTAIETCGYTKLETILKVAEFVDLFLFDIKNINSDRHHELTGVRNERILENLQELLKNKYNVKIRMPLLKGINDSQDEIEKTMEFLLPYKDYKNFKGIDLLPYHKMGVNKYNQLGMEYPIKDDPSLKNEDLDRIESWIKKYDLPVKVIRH
Sequence of CutC from Clostridium sporogenes (A0AAE4Z0A8 entry or part of it): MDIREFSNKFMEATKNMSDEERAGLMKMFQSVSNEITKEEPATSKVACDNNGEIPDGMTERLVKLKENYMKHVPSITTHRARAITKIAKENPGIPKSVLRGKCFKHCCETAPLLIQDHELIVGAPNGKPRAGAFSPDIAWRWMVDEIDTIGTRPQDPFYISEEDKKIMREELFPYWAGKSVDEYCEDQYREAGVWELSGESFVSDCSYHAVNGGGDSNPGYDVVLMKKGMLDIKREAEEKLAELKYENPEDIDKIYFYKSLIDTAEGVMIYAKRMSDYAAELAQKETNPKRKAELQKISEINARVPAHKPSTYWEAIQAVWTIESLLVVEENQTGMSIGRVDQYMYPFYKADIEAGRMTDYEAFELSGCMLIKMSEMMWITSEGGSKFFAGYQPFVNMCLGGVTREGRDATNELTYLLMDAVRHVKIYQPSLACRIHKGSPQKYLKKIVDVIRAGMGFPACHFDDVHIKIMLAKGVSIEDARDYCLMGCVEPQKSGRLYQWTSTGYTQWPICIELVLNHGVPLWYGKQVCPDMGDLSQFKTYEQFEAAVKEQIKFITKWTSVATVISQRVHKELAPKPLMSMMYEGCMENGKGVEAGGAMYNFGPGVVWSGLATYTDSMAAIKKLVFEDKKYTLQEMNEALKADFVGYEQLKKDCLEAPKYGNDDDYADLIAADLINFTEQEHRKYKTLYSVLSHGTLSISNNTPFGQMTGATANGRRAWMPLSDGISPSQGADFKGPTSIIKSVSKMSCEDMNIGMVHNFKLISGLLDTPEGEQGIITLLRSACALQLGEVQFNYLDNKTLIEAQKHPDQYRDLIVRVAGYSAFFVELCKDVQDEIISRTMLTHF
Source text: In each bacterium, CutC was modified into its activated form by a cognate activating enzyme, CutD (protein EDU36696.1 for C. sporogenes; protein WP_004249185.1 for P. mirabilis). […] Trimethylamine may subsequently be converted by human enzymes such as flavin monooxygenase 3 to trimethylamine N-oxide, which might be associated with negative health consequences in humans.
A compound's ability to inhibit CutC from Proteus mirabilis and C. sporogenes from converting choline into trimethylamine was tested in cells as described. A BHI blood plate was inoculated with a frozen stock of Proteus mirabilis or Clostridium sporogenes under anaerobic conditions. A single colony was isolated from the plate and inoculated into 5 mL BHI supplemented with 1 mM choline under anaerobic conditions. The liquid cultures were grown overnight at 37° C.
To prepare each sample, 300 μL of the saturated culture was then inoculated into a 30 mL dilution blank under anaerobic conditions. 1 mM (trimethyl-d9)-choline and a sufficient amount of a compound to obtain a final concentration of 10 μM were added to the inoculated dilution blank. […] The mixture was incubated at 37° C. for 5 h. […] After centrifugation, the samples were analyzed by LCMS to determine the amount of d9-TMA produced.

[5] = pH 7.4, Caco-2, apical to basolateral, 1 μM, 2 hours, 37° C., read-out: Papp A-B
[6] = pH 7.4, Caco-2, basolateral to apical, 1 μM, 2 hours, 37° C., read-out: Papp B-A

## C#CC[N+](C)(CF)CCO[C@@H]1O[C@H](COC(C)=O)[C@@H](OC(C)=O)[C@H](OC(C)=O)[C@H]1OC(C)=O (stereo partly drawn) [Compound 77, (fluoromethyl)(methyl)(prop-2-yn-1-yl)(2-{[(2R,3R,4S,5R,6R)-3,4,5-tris(acetyloxy)-6-[(acetyloxy)methyl]oxan-2-yl]oxy}ethyl)azanium]
[1]
  IC50: ≥ 10000 nM
[2]; [5]
  Papp A→B at 2 h, 1 µM: 0.218 ×10⁻⁶ cm/s
[2]; [6]
  Papp B→A at 2 h, 1 µM: 0.337 ×10⁻⁶ cm/s

## C#CC[N+]1(C)CCCN1.[I-] (stereo not shown) [Compound 125, 1-methyl-1-(prop-2-yn-1-yl)pyrazolidin-1-ium Iodide]
[1]
  IC50: 190 nM
[3]; Table 4g, 9.8 mg/kg oral gavage days 1-3
  % change from vehicle control + choline diet: −6%
[3]; Table 4g, 9.8 mg/kg oral gavage days 1-3, plasma 20 h after last gavage
  Mean plasma TMAO: 26.2 µM
[3]; Table 4g, 97.7 mg/kg oral gavage days 1-3
  % change from vehicle control + choline diet: 18%
[3]; Table 4g, 97.7 mg/kg oral gavage days 1-3, plasma 20 h after last gavage
  Mean plasma TMAO: 32.8 µM
[2]; Caco-2, pH 7.4
  Papp A→B at 2 h, 1 µM: 0.466 ×10⁻⁶ cm/s
  Papp B→A at 2 h, 1 µM: 0.482 ×10⁻⁶ cm/s

## C[N+](C)(CCO)CC1CC1.[Br-] [Compound 107, N-(cyclopropylmethyl)-2-hydroxy-N,N-dimethylethan-1-aminium Bromide]
[1]
  IC50: ≥ 10000 nM
[4]
  IC50: ≥ 10000 nM
[2]; [5]
  Papp A→B at 2 h, 1 µM: 26.8 ×10⁻⁶ cm/s
[2]; [6]
  Papp B→A at 2 h, 1 µM: 31.1 ×10⁻⁶ cm/s

## C#CC[N+](C)(C)CCO.[Br-] [Compound J60, N-(2-hydroxyethyl)-N,N-dimethylprop-2-yn-1-aminium Iodide]
[3]; Table 4a, 10 mg/kg oral gavage days 1-3
  % change from vehicle control + choline diet: −28.46%
[3]; Table 4a, 10 mg/kg oral gavage days 1-3, plasma 20 h after last gavage
  Mean plasma TMAO: 31.06 µM
[3]; Table 4a, 33 mg/kg oral gavage days 1-3
  % change from vehicle control + choline diet: −60.39%
[3]; Table 4a, 33 mg/kg oral gavage days 1-3, plasma 20 h after last gavage
  Mean plasma TMAO: 17.20 µM
[3]; Table 4a, 100 mg/kg oral gavage days 1-3
  % change from vehicle control + choline diet: −87.29%
[3]; Table 4a, 100 mg/kg oral gavage days 1-3, plasma 20 h after last gavage
  Mean plasma TMAO: 5.52 µM
[3]; Table 4b, 10 mg/kg oral gavage days 1-3, plasma 20 h after last gavage, 10 mg/kg
  Mean plasma TMAO: 27.4 µM and 24.7 µM
[3]; Table 4c, 100 mg/kg oral gavage days 1-3
  % change from vehicle control + choline diet: −74.22%
[3]; Table 4c, 100 mg/kg oral gavage days 1-3, plasma 20 h after last gavage
  Mean plasma TMAO: 5.41 µM
[3]; Table 4e, 100 mg/kg oral gavage days 1-3
  % change from vehicle control + choline diet: −86%
[3]; Table 4e, 100 mg/kg oral gavage days 1-3, plasma 20 h after last gavage
  Mean plasma TMAO: 3.81 µM
[3]; Table 4f, 100 mg/kg oral gavage days 1-3
  % change from vehicle control + choline diet: −81%
[3]; Table 4f, 100 mg/kg oral gavage days 1-3, plasma 20 h after last gavage
  Mean plasma TMAO: 6.20 µM
[3]; Table 4g, 100 mg/kg oral gavage days 1-3
  % change from vehicle control + choline diet: −53%
[3]; Table 4g, 100 mg/kg oral gavage days 1-3, plasma 20 h after last gavage
  Mean plasma TMAO: 13.1 µM
[3]; Table 4h, 100 mg/kg oral gavage days 1-3
  % change from vehicle control + choline diet: −80%
[3]; Table 4h, 100 mg/kg oral gavage days 1-3, plasma 20 h after last gavage
  Mean plasma TMAO: 8.72 µM
[3]; Table 4d, 100 mg/kg oral gavage days 1-3
  % change from vehicle control + choline diet: −68%
[3]; Table 4d, 100 mg/kg oral gavage days 1-3, plasma 20 h after last gavage
  Mean plasma TMAO: 6.00 µM
[2]; [5]
  Papp A→B at 2 h, 1 µM: 11.1 ×10⁻⁶ cm/s
[2]; [6]
  Papp B→A at 2 h, 1 µM: 6.23 ×10⁻⁶ cm/s

## C[N+]1(CF)CCC[C@H]1CO.[I-] (stereo partly drawn) [Compound 109, (2S)-1-(fluoromethyl)-2-(hydroxymethyl)-1-methylpyrrolidin-1-ium iodide]
[1]
  IC50: 620 nM
[3]; Table 4g, 116 mg/kg oral gavage days 1-3
  % change from vehicle control + choline diet: −90%
[3]; Table 4g, 116 mg/kg oral gavage days 1-3, plasma 20 h after last gavage
  Mean plasma TMAO: 2.71 µM
[4]
  IC50: 420 nM
[2]; Caco-2, pH 7.4
  Papp A→B at 2 h, 1 µM: 0.6 ×10⁻⁶ cm/s
  Papp B→A at 2 h, 1 µM: 0.5 ×10⁻⁶ cm/s

## C[N+](C)(CCO)C1CC1.[I-] [Compound 111, N-(2-hydroxyethyl)-N,N-dimethylcyclopropanaminium Iodide]
[1]
  IC50: 140 nM and 270 nM
[4]
  IC50: 220 nM
[2]; Caco-2, pH 7.4
  Papp A→B at 2 h, 1 µM: 0.8 ×10⁻⁶ cm/s
  Papp B→A at 2 h, 1 µM: 0.8 ×10⁻⁶ cm/s

## C#CC[N+](C)(C)CCCCO.O=C([O-])C(F)(F)F [Compound 141, 4-hydroxy-N,N-dimethyl-N-(prop-2-yn-1-yl)butan-1-aminium Trifluoroacetate]
[1]
  IC50: 5250 nM
[3]; Table 4b, 10 mg/kg oral gavage days 1-3
  % change from vehicle control + choline diet: −88.23%
[3]; Table 4b, 10 mg/kg oral gavage days 1-3, plasma 20 h after last gavage
  Mean plasma TMAO: 2.92 µM
[4]
  IC50: ≥ 10000 nM
